Results: ChEMBL document CHEMBL4392840, “Further sesquiterpenoids from the rhizomes of Homalomena occulta and their anti-inflammatory activity” (Bioorg Med Chem Lett, 2019)
Calls of active or inactive are those of the source. The rule behind the calls is not given here.

Key:
Format in all cases: functional, cell-based
RAW264.7 [1] = assay: Antiinflammatory activity in mouse RAW264.7 cells assessed as inhibition of LPS-induced COX2 mRNA expression at 10 uM preincubated for 30 mins followed by LPS-stimulation and measured after 18 hrs by QuantiFast SYBR Green dye based RT-PCR analysis
RAW264.7 [2] = assay: Antiinflammatory activity in mouse RAW264.7 cells assessed as inhibition of LPS-induced COX2 mRNA expression preincubated for 30 mins followed by LPS-stimulation and measured after 18 hrs by QuantiFast SYBR Green dye based RT-PCR analysis
RAW264.7 [3] = assay: Antiinflammatory activity in mouse RAW264.7 cells assessed as inhibition of LPS-induced COX2 expression at 1 to 10 uM preincubated for 30 mins followed by LPS-stimulation and measured after 18 hrs by Western blot analysis
RAW264.7 [4] = assay: Antiinflammatory activity in mouse RAW264.7 cells assessed as inhibition of LPS-induced PGE2 formation preincubated for 30 mins followed by LPS-stimulation and measured after 18 hrs by ELISA
RAW264.7 [5] = assay: Antiinflammatory activity in mouse RAW264.7 cells assessed as inhibition of LPS-induced COX2 mRNA expression at 50 uM preincubated for 30 mins followed by LPS-stimulation and measured after 18 hrs by QuantiFast SYBR Green dye based RT-PCR analysis

## CC(C)[C@@H](O)[C@H]1CC[C@@]2(C)[C@@H]1[C@]1(C)CC[C@H]2O1
RAW264.7 [1]
  inhibition: Active
RAW264.7 [2]
  inhibition: Dose-dependent effect
RAW264.7 [3]
  inhibition: Active
RAW264.7 [4]
  inhibition: Dose-dependent effect

## CC1(C)[C@H]2[C@H]3[C@@H](CC[C@]3(C)O)[C@](C)(O)CC[C@H]21
RAW264.7 [1]
  inhibition: Active
RAW264.7 [2]
  inhibition: Dose-dependent effect
RAW264.7 [3]
  inhibition: Active

## C[C@@H]1CC[C@H]2[C@@H]1[C@H]1[C@@H](CC[C@@]2(C)O)C1(C)C
RAW264.7 [1]
  inhibition: Active
RAW264.7 [2]
  inhibition: Dose-dependent effect
RAW264.7 [3]
  inhibition: Active

## Cc1cnc(NC(=O)C2=C(O)c3ccccc3S(=O)(=O)N2C)s1
RAW264.7 [5]
  inhibition: Active
